“Also recorded” adds a separate entry of the source.
Key:
[1] = system: NHEKs, Neonatal Human Epidermal Keratinocytes; assay: Reprogramming of NHEKs (TRA-1-81 positive iPSC colonies); format: cell-based; conditions: for generation of iPSCs / enhancement of reprogramming under OK condition (in words): 2TFs (OK)
Description: NHEKs were cultured in a 100 mm tissue culture dish and transduced 3 times (3-4 hours each transduction) with freshly produced lentivirus supernatants. 1,000,000 transduced NHEKs were seeded on the irradiated x-ray inactivated CF1 MEF feeder cells in a 100-mm dish and cultured in KCM and treated with 5 μM PS48, 0.25 mM NaB (Stemgent) and 0.5 μM A-83-01 (Stemgent) for 2 weeks, followed by changing half volume of media to hESCM and supplementing with 5 μM PS48, 0.25 mM NaB and 0.5 μM A-83-01 for another 2 weeks. Then cell culture media were changed to hESCM and supplemented with 5 μM PS48, 0.25 mM NaB, 0.5 μM A-83-01 and 0.5 μM PD0325901 (Stemgent) for additional four weeks. The same OCT4 infected keratinocytes cultured in media without chemicals were used as a control. The culture was split by Accutase (Millipore) and treated with 1 μM Thiazovivin (Stemgent) in the first day after splitting. The iPSC colonies stained positive by Alexa Fluor 555 Mouse anti-Human TRA-1-81 antibody (BD Pharmingen) were picked up for expansion on feeder cells in hESCM and cultured routinely.
NHEKs, Neonatal Human Epidermal Keratinocytes; HUVECs, Human Umbilical Vein Endothelial Cells; AHEKs, Adult Human Epidermal Keratinocytes; AFDCs, Amniotic Fluid Derived Cells. Chemical concentration used: PD, 0.5 μM PD0325901; A83, 0.5 μM A-83-01; PS48, 5 μM PS48; VPA, 0.5 mM Valproic acid; NaB, 0.25 mM Sodium butyrate; Par, 2 μM Parnate; CHIR, 3 μM CHIR99021. For four-factor or three-factor induced reprogramming, NHEKs were seeded at a density of 100,000 transduced cells per 10 cm dish and positive colonies were counted four-week later; For two-factor induced reprogramming, NHEKs were seeded at a density of 100,000 transduced cells per 10 cm dish and positive colonies were counted six-week later; For one-factor induced reprogramming, NHEKs and AHEKs were seeded at a density of 1,000,000 transduced cells per 10 cm dish and positive colonies were counted eight-week later; HUVECs and AFDCs were seeded at a density of 200,000 transduced cells per 10 cm dish and positive colonies were counted six-week later.

[2] = system: human primary fibroblasts (CRL2097 or BJ); assay: iPSC induction from human primary fibroblasts transduced with the four reprogramming factors, with compound treatment; format: cell-based; conditions: for effect on reprogramming (in words): 4 factor-mediated reprogramming of fibroblasts
Description: We tested known inhibitors of the TGFβ receptor and MEK on 1×10^4 (Feng, B. et al., Cell Stem Cell 4, 301-12 (2009)) human primary fibroblasts (CRL2097 or BJ) that were retrovirally transduced with the 4TFs, for their effect on reprogramming kinetics and efficiency (see FIG. 1a for details). On day 7 (D7) post-infection, the compounds were added, individually or in combinations, and the cultures were examined for iPSCs over the next 1-3 weeks.
The Slc7a1-expressing human fibroblast cells were seeded at 1×10^5 cells/well of a 6 well plate on the day 1. On day 2, 0.25 ml of each retroviral supernatant was added to the cells in the presence of 6 μg/ml polybrene. A second round of transduction was done on day 3. Infection efficiency was estimated by fluorescence microscopy on cells transduced in parallel with GFP or RFP gene-carrying retroviruses. Seven days after initial transduction, fibroblasts were harvested by trypsinization and re-plated at 1×10^4 cells/well of a 6 well plate coated with matrigel (1:50 dilution, cat 354234, BD Biosciences). For compound treatment, the cells were cultured in human reprogramming medium (DMEM/F12, 20% Knockout serum replacer, 1×MEM Non-Essential amino acid, lx glutamax, 0.11 mM 2-Mercaptoethanol, 20 ng/ml bFGF and 1,000 U/ml LIF) and were treated with 2 μM SB431542 (Stemgent), 0.5 μM PD0325901 (Stemgent), 0.5 μM Thiazovivin, or combinations of the compounds. The media were changed every 2-3 days depending on the cell density. Seven days after compound treatment, either the plates were fixed and stained for Alkaline phosphatase (ALP) activity, or stained for protein markers, or the cultures were continued with or without indicated splitting by trypsinization till day 30. For split cultures, the cells were split (1:4) and re-plated onto irradiated CF-1 MEF feeder layer (2.5×10^5 cells/well) in each well of 6 well plate and were split (1:10) again on day 21. The cells were maintained in the same media and compound cocktail described above except for the concentrations of PD0325901 (0.5 μM for D14 and 1 μM for D21) and SB431542 (0.5-1 μM after D14). The iPSC colonies were subsequently maintained in conventional hESC media in the absence of the above compounds.
Alkaline phosphatase staining was performed using ALP detection kit (cat no: SCR004, Chemicon) according to the product instructions. For immunocytochemistry, cells were fixed in 4% paraformaldehyde (10 min, RT), washed twice with PBS, blocked using 5% normal donkey serum (Chemicon) and 0.1% TritonX-100 (15 min, RT) and then treated with primary antibodies overnight at 4° C. The primary antibodies used were anti-NANOG (cat no: AB9220, Chemicon, 1:1,000); anti-OCT4 (cat no: sc-5279, Santa Cruz biotech, 1:200), anti-SSEA 4 (cat no: mab4304, Chemicon, 1:500), anti-Tra-1-81 (cat 560123, BD Biosciences, 1:100), anti-Tra-1-81 (mAb 4381, Chemicon, 1:500), anti-βIII TUBULIN (cat no: MMS-435P, Covance Research Products Inc, 1:1000), anti-PDX 1 (1:500) (a kind gift from Dr. C. Wright), anti-BRACHYURY (cat No: AF2085, R & D, final concentration 0.2 μg/ml). The cells were washed twice with PBS and then treated with secondary antibodies for 1 hour at room temperature. The secondary antibodies used were Alexa fluor 488 donkey anti-rabbit or anti-mouse IgG (Invitrogen, 1:1,000) and Alexa fluor 555 donkey anti-rabbit or anti-mouse IgG (Invitrogen, 1:1,000). Nuclei were stained with 0.5 μg/ml DAPI (Sigma). Images were captured using a Nikon Eclipse TE2000-U/X-cite 120 EXFO microscope with a photometric CoolSnap HQ2 camera.

CCCC(=O)[O-].[Na+] [NaB, Sodium butyrate]
generation of iPSCs / enhancement of reprogramming under OK condition (in words) [1]: substantially enhance reprogramming; also recorded: much more reliable and efficient

O=C(NOC[C@H](O)CO)c1ccc(F)c(F)c1Nc1ccc(I)cc1F [PD0325901]
NANOG+ colonies at day 14 ([2]; 4TFs, D14, no splitting): no NANOG^+ colonies

O=C(O)/C=C(/CCc1ccc(Cl)cc1)c1ccccc1 [PS48]
generation of iPSCs / enhancement of reprogramming under OK condition (in words) [1]: substantially enhance reprogramming
enhancement of the reprogramming efficiency ([1]; two factors/OK, with 0.5 μM PD0325901 and 0.5 μM A-83-01): about fifteen fold

NC(=O)c1ccc(-c2nc(-c3ccc4c(c3)OCO4)c(-c3ccccn3)[nH]2)cc1 [SB431542]
dose dependence of the effect on iPS cell generation ([2]; 4TFs): dose dependent
ALP+ colonies with hESC-like morphology ([2]; 4TFs, 1×10^4 cells, day 7 post-treatment (D14), SB431542 2 μM, PD0325901 0.5 μM): 1-2 colonies
number of granulate (partially reprogrammed) colonies ([2]; 4TFs, 30 days without splitting): outnumbered by several fold the few hESC-like colonies

Cc1ccc2c(c1)C(=O)C1(O)CCN(c3ccccc3)C1=N2 (stereo not drawn) [blebbistatin]
effect on reprogramming (in words) [2]: can be substituted for SB431542 (an ALK5 inhibitor), albeit with a reduced effect

TGFβ
effect on reprogramming (in words) [2]: inhibitory effect

From patent publication US12195762B2, “Induction of pluripotent cells” (The Scripps Research Institute, priority 2009, dated 2025)
